Structures can show the parent of a compound that is named as a salt.
Assay: in vitro
Settings: rat, gh3-tre-luc cells

SMILES	CC50 at 24 h (AC50 (uM) modified / 1000)	further results
Fc1ccc(C(OCCN2CCN(CCCc3ccccc3)CC2)c2ccc(F)cc2)cc1 [GBR 12909 dihydrochloride]	8.65 µM	–
CS(=O)(=O)c1ccc(C(=O)C2C(=O)CCCC2=O)c([N+](=O)[O-])c1 [Mesotrione]	> 90 µM	–
COc1ccc(Br)c(C)c1 [1-Bromo-4-methoxy-2-methylbenzene]	> 90 µM	–
CCOC(=O)CCC(=O)OCC [Diethyl butanedioate]	> 90 µM	–
C=C(C)C(=O)OCCC(C)OC(=O)C(=C)C (stereo not shown) [1,3-Butyleneglycol dimethacrylate]	> 90 µM	–
O=CC(=O)c1ccccc1 [Phenylglyoxal]	> 90 µM	–
Cc1c(C(=O)O)cccc1[N+](=O)[O-] [2-Methyl-3-nitrobenzoic acid]	> 90 µM	–
CCCCCCOc1ccc(C(=N)N(CCCC)CCCC)c2ccccc12 [Bunamidine hydrochloride]	5.23 µM	–
CCOC(=O)CBr [Ethyl bromoacetate]	–	CC50 at 24 h (AC50 (uM) modified / 1000, Tox21_110001=Tox21_200152, viability, 1 nM T3 present, 24 h): > 90 µM
ClCC(Cl)CCl [1,2,3-Trichloropropane]	–	CC50 at 24 h (AC50 (uM) modified / 1000, Tox21_110001=Tox21_202023, viability, 1 nM T3 present, 24 h): > 90 µM
CCOCCOC(C)=O [2-Ethoxyethyl acetate]	> 90 µM	–
C=CCOC(=O)c1ccccc1C(=O)OCC=C [Diallyl phthalate]	> 90 µM	–
O=C(Nc1ccc(Cl)c(Cl)c1)c1cc(Cl)cc(Cl)c1O [3,5-Dichlorosalicyl-3,4-dichloroanilide]	2.97 µM	–
O=C(O)Cc1c[nH]c2ccccc12 [Indole-3-acetic acid]	> 90 µM	–
CCCCOc1ccc(OCCCN2CCOCC2)cc1 [Pramoxine hydrochloride]	> 20 µM	–
O=C1CCC(N2C(=O)c3ccccc3C2=O)C(=O)N1 (stereo not shown) [Thalidomide]	> 90 µM	–
O=C1c2cccc(O)c2C(=O)c2c(O)cc(CO)cc21 [Aloe-emodin]	> 90 µM	–
O=C(O)c1c2ccccc2cc2ccccc12 [9-Anthracenecarboxylic acid]	> 90 µM	–
O=c1ccn(C2OC(COP(=O)(O)OC3C(CO)OC(n4ccc(=O)[nH]c4=O)C3O)C(O)C2O)c(=O)[nH]1 (stereo not shown) [Uricase from Bacillus fastidiosus]	> 50 µM	–
Cc1nc2n(c(=O)c1CCN1CCC(c3noc4cc(F)ccc34)CC1)CCCC2O (stereo not shown) [Paliperidone]	> 50 µM	–
O=C(O)c1cccc(-c2noc(-c3ccccc3F)n2)c1 [Ataluren]	> 50 µM	–

SMILES	CC50 at 24 h (AC50 (uM) modified / 1000)	further results
C1CCc2nnnn2CC1 [Pentylenetetrazol]	> 50 µM	–
CCOC(=O)C1=NN(c2ccccc2)C(=O)C1 [Ethyl 5-oxo-1-phenyl-4,5-dihydro-1H-pyrazole-3-carboxylate]	> 90 µM	–
O=P(O)(O)C(O)(Cc1cccnc1)P(=O)(O)O [Risedronate sodium]	> 50 µM	–
CC/C=C\CCOC(C)OCC (stereo not drawn) [Acetaldehyde ethyl cis-3-hexenyl acetal]	> 70 µM	–
C=CCN=C=S [Allyl isothiocyanate]	> 90 µM	–
CCCC(=O)C(C)=O [2,3-Hexanedione]	> 90 µM	–
CC(C)(C)c1ccc(C(=O)O)cc1 [4-tert-Butylbenzoic acid]	> 90 µM	–
CCCCCCOC(=O)C(C)C [Hexyl isobutyrate]	> 90 µM	–
CCC(CC)Nc1ccc(C)c(C)c1 [N-(1-Ethylpropyl)-3,4-xylidine]	> 90 µM	–
O=C(NCC1CCCCN1)c1cc(OCC(F)(F)F)ccc1OCC(F)(F)F (stereo not shown) [Flecainide acetate]	42.2 µM	–
COCC(C)O (stereo not shown) [1-Methoxy-2-propanol]	> 90 µM	–
O=C(O)/C=C/c1ccccc1 [E-Cinnamic acid]	> 90 µM	–
CNC(C)CCC=C(C)C (stereo not shown) [Isometheptene hydrochloride]	> 50 µM	–
Cc1ccc(N)cc1[N+](=O)[O-] [4-Methyl-3-nitroaniline]	> 90 µM	–
CCOP(=S)(OCC)Oc1ccc2c(C)c(Cl)c(=O)oc2c1 [Coumaphos]	–	CC50 at 24 h (AC50 (uM) modified / 1000, Tox21_110001=Tox21_111290, viability, 1 nM T3 present, 24 h): > 50 µM; CC50 at 24 h (AC50 (uM) modified / 1000, Tox21_110001=Tox21_201841, viability, 1 nM T3 present, 24 h): > 90 µM
Clc1ccc(COC(Cn2ccnc2)c2ccc(Cl)cc2Cl)c(Cl)c1 (stereo not shown) [Miconazole]	15 µM	–
C=N[C@@H](C(=O)N[C@@H]1C(=O)N2[C@@H]1SC(C)(C)[C@@H]2C(=O)O)c1ccccc1 [Metampicillin sodium]	> 50 µM	–
O=C=NCCCCCCN=C=O [1,6-Diisocyanatohexane]	> 90 µM	–
CCCCCCCCO[C@@H]1O[C@H](CO)[C@@H](O)[C@H](O)[C@H]1O [Octyl beta-D-glucopyranoside]	> 90 µM	–
Nc1nnc(-c2ccc([N+](=O)[O-])o2)o1 [2-Amino-5-(5-nitro-2-furyl)-1,3,4-oxadiazole]	59 µM	–
CC(C)(C)NCC(O)COc1cccc2c1CCC(=O)N2 (stereo not shown) [Carteolol hydrochloride]	> 20 µM	–
